Experimental data published in article PMC10046369, “Low-Affinity/High-Selectivity Dopamine Transport Inhibition Sufficient to Rescue Cognitive Functions in the Aging Rat” (Biomolecules, 2023).

What was measured:
Assay in all cases: cell-based
Set-up in all cases: Eurofins Cerep functional GPCR screen, antagonist mode, inhibition of control agonist response
Settings in all cases: read-out: % Inhibition of Control Agonist Response, Mean
D1 = target: T1, D1 (Homo sapiens, UniProt P21728)
T1 construct: gene DRD1

CCR2 = CCR2 (Homo sapiens, UniProt P41597)
H3 = target: T2, H3 (Homo sapiens, UniProt Q9Y5N1)
T2 construct: gene HRH3

α2A = target: T3, α2A (Homo sapiens, UniProt P08913)
T3 construct: gene ADRA2A

β1 = target: T4, β1 (Homo sapiens, UniProt P08588)
T4 construct: gene ADRB1

CB1 = target: T5, CB1 (Homo sapiens, UniProt P21554)
T5 construct: gene CNR1

β2 = target: T6, β2 (Homo sapiens, UniProt P07550)
T6 construct: gene ADRB2

FFA4 (GPR120) = target: T7, FFA4 (GPR120) (Homo sapiens, UniProt Q5NUL3)
T7 construct: gene FFAR4

FFA3 = target: T8, FFA3 (Homo sapiens, UniProt O14843)
T8 construct: gene FFAR3

CysLT2 (LTC4) = target: T9, CysLT2 (LTC4) (Homo sapiens, UniProt Q9NS75)
T9 construct: gene CYSLTR2

BLT1 (LTB4) = target: T10, BLT1 (LTB4) (Homo sapiens, UniProt Q15722)
T10 construct: gene LTB4R

alpha 1D = target: T11, alpha 1D (Homo sapiens, UniProt P25100)
T11 construct: gene ADRA1D

FFA2 = target: T12, FFA2 (Homo sapiens, UniProt O15552)
T12 construct: gene FFAR2

GIP = target: T13, GIP (Homo sapiens, UniProt P48546)
T13 construct: gene GIPR

ChemR23 = target: T14, ChemR23 (Homo sapiens, UniProt Q99788)
T14 construct: gene CMKLR1

GABAB1b beta = target: T15, GABAB1b beta (Homo sapiens, UniProt Q9UBS5)
T15 construct: gene GABBR1; GABAB1b isoform

D3 = target: T16, D3 (Homo sapiens, UniProt P35462)
T16 construct: gene DRD3

D2S = target: T17, D2S (Homo sapiens, UniProt P14416)
T17 construct: gene DRD2; D2S short isoform

OXGR1 GPR99 = OXGR1 GPR99 (Homo sapiens, UniProt Q96P68)
AT1 = target: T18, AT1 (Homo sapiens, UniProt P30556)
T18 construct: gene AGTR1

CCK2 (CCKB) = target: T19, CCK2 (CCKB) (Homo sapiens, UniProt P32239)
T19 construct: gene CCKBR

GHRH = target: T20, GHRH (Homo sapiens, UniProt Q02643)
T20 construct: gene GHRHR

α2B = target: T21, α2B (Homo sapiens, UniProt P18089)
T21 construct: gene ADRA2B

CB2 = target: T22, CB2 (Homo sapiens, UniProt P34972)
T22 construct: gene CNR2

B1 = target: T23, B1 (Homo sapiens, UniProt P46663)
T23 construct: gene BDKRB1

T13 sequence (P48546 whole entry): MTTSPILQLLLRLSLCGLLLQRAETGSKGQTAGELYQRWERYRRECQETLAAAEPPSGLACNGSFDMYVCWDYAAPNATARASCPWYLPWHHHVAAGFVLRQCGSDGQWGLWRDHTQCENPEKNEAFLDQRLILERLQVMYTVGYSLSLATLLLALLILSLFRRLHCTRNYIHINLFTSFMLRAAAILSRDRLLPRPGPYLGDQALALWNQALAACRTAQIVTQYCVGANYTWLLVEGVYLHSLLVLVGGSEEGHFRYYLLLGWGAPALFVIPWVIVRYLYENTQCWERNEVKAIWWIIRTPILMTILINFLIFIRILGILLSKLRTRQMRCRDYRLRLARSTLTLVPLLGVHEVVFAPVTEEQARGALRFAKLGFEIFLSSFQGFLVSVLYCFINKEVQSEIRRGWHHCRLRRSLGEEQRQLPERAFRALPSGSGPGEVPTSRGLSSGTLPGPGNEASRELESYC
T22 sequence (P34972 whole entry): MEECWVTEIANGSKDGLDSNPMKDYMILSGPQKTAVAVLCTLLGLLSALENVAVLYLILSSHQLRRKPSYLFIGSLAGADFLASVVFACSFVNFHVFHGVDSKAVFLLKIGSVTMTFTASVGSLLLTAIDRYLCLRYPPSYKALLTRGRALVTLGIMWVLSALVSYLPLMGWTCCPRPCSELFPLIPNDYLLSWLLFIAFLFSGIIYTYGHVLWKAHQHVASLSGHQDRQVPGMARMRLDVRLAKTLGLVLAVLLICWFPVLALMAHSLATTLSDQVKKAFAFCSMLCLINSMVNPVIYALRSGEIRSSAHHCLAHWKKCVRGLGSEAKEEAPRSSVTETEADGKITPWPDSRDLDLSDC
T18 sequence (P30556 whole entry): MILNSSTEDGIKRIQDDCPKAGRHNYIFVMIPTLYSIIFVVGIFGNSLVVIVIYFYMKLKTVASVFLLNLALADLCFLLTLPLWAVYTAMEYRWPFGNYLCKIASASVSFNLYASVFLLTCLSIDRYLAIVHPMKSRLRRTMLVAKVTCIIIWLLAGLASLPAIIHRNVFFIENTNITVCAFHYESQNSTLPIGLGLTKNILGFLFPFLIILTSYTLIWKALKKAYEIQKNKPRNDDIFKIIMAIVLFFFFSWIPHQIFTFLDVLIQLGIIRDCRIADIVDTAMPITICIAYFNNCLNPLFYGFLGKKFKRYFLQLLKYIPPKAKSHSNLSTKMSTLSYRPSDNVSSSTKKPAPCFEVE
Sequence of OXGR1 GPR99 (Q96P68 whole entry): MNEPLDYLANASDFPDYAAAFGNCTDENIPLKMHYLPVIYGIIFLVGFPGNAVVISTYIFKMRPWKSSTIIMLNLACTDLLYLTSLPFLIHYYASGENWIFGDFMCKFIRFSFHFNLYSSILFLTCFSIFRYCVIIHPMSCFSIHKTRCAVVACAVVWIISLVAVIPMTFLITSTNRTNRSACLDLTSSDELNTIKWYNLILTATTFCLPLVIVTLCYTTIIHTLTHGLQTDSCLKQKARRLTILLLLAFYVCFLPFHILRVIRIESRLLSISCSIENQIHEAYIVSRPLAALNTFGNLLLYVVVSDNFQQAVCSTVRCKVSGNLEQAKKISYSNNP
T15 sequence (Q9UBS5 whole entry, canonical isoform): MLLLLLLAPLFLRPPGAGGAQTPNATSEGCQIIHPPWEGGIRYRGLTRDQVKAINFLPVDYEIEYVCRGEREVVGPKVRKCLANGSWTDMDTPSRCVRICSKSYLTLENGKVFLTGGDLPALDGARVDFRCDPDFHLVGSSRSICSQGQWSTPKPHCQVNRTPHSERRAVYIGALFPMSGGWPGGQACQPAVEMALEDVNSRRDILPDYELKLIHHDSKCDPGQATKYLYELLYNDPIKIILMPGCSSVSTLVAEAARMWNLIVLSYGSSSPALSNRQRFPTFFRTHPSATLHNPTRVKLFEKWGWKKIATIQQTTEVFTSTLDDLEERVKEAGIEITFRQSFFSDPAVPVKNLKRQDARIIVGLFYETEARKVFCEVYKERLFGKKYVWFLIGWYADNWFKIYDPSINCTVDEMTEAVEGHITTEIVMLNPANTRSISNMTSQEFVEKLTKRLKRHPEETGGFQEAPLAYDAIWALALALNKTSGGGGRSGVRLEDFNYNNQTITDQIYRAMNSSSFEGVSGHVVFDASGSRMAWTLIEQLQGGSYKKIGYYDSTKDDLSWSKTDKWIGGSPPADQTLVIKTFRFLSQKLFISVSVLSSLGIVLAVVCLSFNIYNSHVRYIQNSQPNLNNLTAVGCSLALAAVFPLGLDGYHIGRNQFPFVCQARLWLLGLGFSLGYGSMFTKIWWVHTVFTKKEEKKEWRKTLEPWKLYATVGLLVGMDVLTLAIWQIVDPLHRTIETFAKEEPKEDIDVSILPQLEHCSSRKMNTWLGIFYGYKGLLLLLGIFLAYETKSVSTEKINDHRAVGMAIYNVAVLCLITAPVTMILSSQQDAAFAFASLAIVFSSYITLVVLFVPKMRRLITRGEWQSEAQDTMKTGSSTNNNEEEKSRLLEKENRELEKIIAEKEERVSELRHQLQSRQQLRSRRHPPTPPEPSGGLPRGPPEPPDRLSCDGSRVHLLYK
T15 sequence (O75899 whole entry partner, canonical isoform): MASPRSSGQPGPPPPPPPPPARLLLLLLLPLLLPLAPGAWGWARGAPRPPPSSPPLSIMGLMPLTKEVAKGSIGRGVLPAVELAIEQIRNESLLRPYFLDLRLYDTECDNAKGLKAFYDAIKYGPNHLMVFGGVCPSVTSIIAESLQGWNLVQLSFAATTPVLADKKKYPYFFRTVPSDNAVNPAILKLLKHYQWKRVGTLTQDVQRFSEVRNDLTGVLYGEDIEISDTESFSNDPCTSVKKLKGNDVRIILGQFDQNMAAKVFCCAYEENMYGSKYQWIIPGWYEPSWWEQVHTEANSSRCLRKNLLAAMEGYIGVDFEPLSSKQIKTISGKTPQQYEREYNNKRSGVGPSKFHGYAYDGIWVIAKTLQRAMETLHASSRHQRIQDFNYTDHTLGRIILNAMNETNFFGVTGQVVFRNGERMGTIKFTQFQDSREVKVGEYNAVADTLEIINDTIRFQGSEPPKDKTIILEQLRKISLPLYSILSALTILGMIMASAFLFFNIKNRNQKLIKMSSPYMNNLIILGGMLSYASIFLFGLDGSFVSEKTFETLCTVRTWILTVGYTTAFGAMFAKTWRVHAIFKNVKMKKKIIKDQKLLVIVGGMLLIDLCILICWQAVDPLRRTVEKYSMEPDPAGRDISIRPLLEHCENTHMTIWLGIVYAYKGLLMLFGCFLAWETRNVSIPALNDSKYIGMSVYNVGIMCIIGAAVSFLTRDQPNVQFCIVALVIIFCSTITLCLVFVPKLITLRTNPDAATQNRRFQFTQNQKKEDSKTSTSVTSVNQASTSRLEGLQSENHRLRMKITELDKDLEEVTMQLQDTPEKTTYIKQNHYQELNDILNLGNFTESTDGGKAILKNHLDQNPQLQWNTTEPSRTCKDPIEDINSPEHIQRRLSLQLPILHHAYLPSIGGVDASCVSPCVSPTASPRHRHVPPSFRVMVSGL
T10 sequence (Q15722 whole entry): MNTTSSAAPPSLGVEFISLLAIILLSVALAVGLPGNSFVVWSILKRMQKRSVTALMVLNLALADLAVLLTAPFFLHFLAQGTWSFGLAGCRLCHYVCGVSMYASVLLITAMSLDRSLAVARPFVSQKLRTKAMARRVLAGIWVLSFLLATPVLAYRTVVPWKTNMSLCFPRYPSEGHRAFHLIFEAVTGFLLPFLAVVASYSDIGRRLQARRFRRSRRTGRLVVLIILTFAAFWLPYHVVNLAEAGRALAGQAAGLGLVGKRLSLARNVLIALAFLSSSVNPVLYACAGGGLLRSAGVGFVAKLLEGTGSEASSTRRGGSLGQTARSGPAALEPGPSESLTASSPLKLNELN
T6 sequence (P07550 whole entry): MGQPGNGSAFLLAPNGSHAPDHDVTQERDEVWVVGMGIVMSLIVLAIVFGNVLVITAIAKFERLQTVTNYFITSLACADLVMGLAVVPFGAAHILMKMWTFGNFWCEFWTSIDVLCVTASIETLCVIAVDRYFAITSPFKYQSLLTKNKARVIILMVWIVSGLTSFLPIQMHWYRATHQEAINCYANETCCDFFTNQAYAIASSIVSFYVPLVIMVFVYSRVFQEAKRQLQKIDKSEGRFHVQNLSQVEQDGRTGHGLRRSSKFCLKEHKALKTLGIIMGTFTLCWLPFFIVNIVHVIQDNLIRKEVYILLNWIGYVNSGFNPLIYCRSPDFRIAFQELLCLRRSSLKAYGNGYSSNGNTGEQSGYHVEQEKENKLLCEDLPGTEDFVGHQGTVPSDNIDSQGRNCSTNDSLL
T21 sequence (P18089 whole entry): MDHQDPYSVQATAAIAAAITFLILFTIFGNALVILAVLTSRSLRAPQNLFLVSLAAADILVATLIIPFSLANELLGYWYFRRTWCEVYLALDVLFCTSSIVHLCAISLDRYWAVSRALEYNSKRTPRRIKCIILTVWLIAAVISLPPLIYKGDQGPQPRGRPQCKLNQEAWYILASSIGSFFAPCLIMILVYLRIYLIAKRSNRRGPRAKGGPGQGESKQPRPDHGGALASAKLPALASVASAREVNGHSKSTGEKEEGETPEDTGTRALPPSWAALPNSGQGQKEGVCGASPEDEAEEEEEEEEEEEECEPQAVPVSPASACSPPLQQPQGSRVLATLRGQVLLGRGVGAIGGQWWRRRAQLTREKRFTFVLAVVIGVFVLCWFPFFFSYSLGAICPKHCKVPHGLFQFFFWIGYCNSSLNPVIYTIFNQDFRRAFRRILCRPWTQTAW
T7 sequence (Q5NUL3 whole entry): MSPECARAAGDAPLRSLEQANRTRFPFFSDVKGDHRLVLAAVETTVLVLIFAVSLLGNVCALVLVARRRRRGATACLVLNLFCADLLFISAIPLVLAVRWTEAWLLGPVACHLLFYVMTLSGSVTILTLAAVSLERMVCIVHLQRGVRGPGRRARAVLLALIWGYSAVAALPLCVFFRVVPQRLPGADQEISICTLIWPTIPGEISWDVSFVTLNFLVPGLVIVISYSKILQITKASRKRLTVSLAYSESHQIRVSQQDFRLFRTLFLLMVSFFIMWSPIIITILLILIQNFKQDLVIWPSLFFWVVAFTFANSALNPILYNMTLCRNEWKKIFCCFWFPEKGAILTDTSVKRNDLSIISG

[O-][S@@+](Cc1cncs1)C(c1ccccc1)c1ccccc1 [S-CE-123, (S)-5-((Benzhydrylsulfinyl)Methyl)Thiazole]
inhibition at 2.8 µM (D1): -5.6%
inhibition at 2.8 µM (CCR2): 2%
inhibition at 2.8 µM (H3): -0.3%
inhibition at 2.8 µM (α2A): -8.4%
inhibition at 2.8 µM (β1): 18.4%
inhibition at 2.8 µM (CB1): -2.1%
inhibition at 2.8 µM (β2): -1.2%
inhibition at 2.8 µM (FFA4 (GPR120)): -14.4%
inhibition at 2.8 µM (FFA3): -1.4%
inhibition at 2.8 µM (CysLT2 (LTC4)): 4.5%
inhibition at 2.8 µM (BLT1 (LTB4)): -4.7%
inhibition at 2.8 µM (alpha 1D): -2.4%
inhibition at 2.8 µM (FFA2): 2.9%
inhibition at 2.8 µM (GIP): -6.6%
inhibition at 2.8 µM (ChemR23): -1.6%
inhibition at 2.8 µM (GABAB1b beta): -10.6%
inhibition at 2.8 µM (D3): -1.9%
inhibition at 2.8 µM (D2S): 18.1%
inhibition at 2.8 µM (OXGR1 GPR99): -10.2%
inhibition at 2.8 µM (AT1): 3%
inhibition at 2.8 µM (CCK2 (CCKB)): -6.9%
inhibition at 2.8 µM (GHRH): 11.7%
inhibition at 2.8 µM (α2B): -8.3%
inhibition at 2.8 µM (CB2): 8.6%
inhibition at 2.8 µM (B1): -10.4%
